Key:
[1] = Optical property measurements (absorbance and fluorescence spectra); format: physicochemical; conditions: 100% FBS with 50 mM HEPES, pH 7.4, 37° C.
Protocol: Absorbance and fluorescence spectra were obtained at a concentration of […] in 100% FBS supplemented with 50 mM HEPES, pH 7.4. B) Optical properties of Oxazine 4 were measured in PBS (pH 7.4), FBS (pH 7.4), MeOH, and DMSO.
Oxazine derivatives were obtained from Fisher Scientific Inc. (Pittsburgh, Pa.) or Sigma-Aldrich (Saint Louis, Mo.), and BMB was synthesized as described previously (25). Optical measurements were performed at 37° C. in phosphate-buffered saline (PBS), pH 7.4 or 100% fetal bovine serum (FBS) buffered with 50 mM HEPES, pH 7.4. Absorbance and fluorescence emission spectra were measured using fiber optic HR2000 absorbance (200-1100 nm) and USB2000FL fluorescence (350-1000 nm) spectrometers (Ocean Optics, Dunedin, Fla.). NIR excitation was provided by a 532 nm green laser pointer (Opcom Inc., Xiamen, China) set to 5 mW and coupled through a […] core diameter, NA 0.22 fiber (Fiberguide Industries, Stirling, N.J.). In silico calculation of the partition coefficient (log D at pH 7.4) was calculated using Marvin and J Chem calculator plugins (ChemAxon, Budapest, Hungary). Chemical similarities were calculated by Instant J Chem 6.04 using “Chemical Hashed Fingerprint” with the Normalized Euclidean dissimilarity screening configuration (ChemAxon).
All optical measurements were performed at 37° C. in phosphate-buffered saline (PBS), pH 7.4, 100% fetal bovine serum (FBS) buffered with 50 mM HEPES, pH 7.4, methanol (MeOH), or dimethyl sulfoxide (DMSO). Absorbance and fluorescence emission spectra of the series of NIR fluorophores were measured using fiber optic HR2000 absorbance (200-1100 nm) and USB2000FL fluorescence (350-1000 nm) spectrometers (Ocean Optics, Dunedin, Fla.). Excitation light was provided by a 532 nm green laser pointer (Opcom Inc., Xiamen, China) set to 5 mW and coupled through a 300 μm core diameter, NA 0.22 fiber (Fiberguide Industries, Stirling, N.J.). In silico calculation of the partition coefficient (log D at pH 7.4) was calculated using Marvin and J Chem calculator plugins (ChemAxon, Budapest, Hungary).

[2] = tested on: recurrent laryngeal nerve (RLN), brachial plexus (BP) and sciatic nerve (SN) of Yorkshire pigs; experiment: Nerve targeting in large animals, intraoperative FLARE imaging; format: in vivo, pig; conditions: iv
Protocol: 20 μmol (0.17 mg/kg) of Oxazine 4 was injected intravenously into 35 kg Yorkshire pigs, and the SBR of nerves to the specified surrounding tissue was measured at different time points (T=0, 15, 30, 60, 120, 180, and 240 min). B) Real-time intraoperative fluorescence images of RLN (top), BP (middle), and SN (bottom) acquired at different time points (T=0, 15, 30, 60, 120, 180, and 240 min). Ad=adipose tissue; Mu=muscle; TEG=tracheoesophageal groove; Th=thyroid; Tr=trachea. Scale bars=1 cm. Fluorescence images have identical exposure times (500 msec) and normalizations. C) Fluorescence microscopic images of cryosectioned RLN, BP, and SN. Samples were obtained after injecting 20 μmol of Oxazine 4 into Yorkshire pigs 4 h prior to resection. Shown are representative images (N=5) of H&E (left) and NIR fluorescence (right) images. Scale bars=[…]. All NIR fluorescence images have identical exposure times and normalizations.
Animals were housed in an AAALAC-certified facility. Animal studies were performed under the supervision of Beth Israel Deaconess Medical Center's Institutional Animal Care and Use Committee (IACUC) in accordance with approved institutional protocols (#101-2011 for rodents and #046-2010 for pigs). […] Following anesthesia, electrocardiogram, heart rate, pulse oximetry, and body temperature were monitored throughout surgery.
Initial in vivo screening occurred in rats based on our previous study of BMB (Supplementary Methods) (25). […] The fluorescence signal in nervous tissues and signal-to-background ratio (SBR) compared to neighboring muscle (Mu) were obtained over the period of imaging. […]
The fluorescence intensity (FI) and background (BG) intensity of a region of interest (ROI) over each nerve/tissue were calculated and quantified using custom FLARE^a software. The FI of the RLN, BP, and SN at the optimal dose and time point were quantified to measure tissue-specific targeting. […]

Abs (peak absorbance) [1]: 616 nm
Em (peak emission) [1]: 635 nm
λ (extinction coefficient) [1]: 143,000 M^−1cm^−1
SMILES: CC/N=c1/cc2oc3cc(NCC)c(C)cc3nc-2cc1C [Oxazine 4]
signal retention in BP and SN post injection [2]: up to 3 h
time of maximal SBR, BP and SN [2]: 1 h
time of maximal SBR, RLN ([2]; RLN vs surrounding tissue): 3 h

Source: US11001562B2, “Near-infrared fluorescent nerve contrast agents and methods of use thereof” (Beth Israel Deaconess Medical Center, priority 2013, dated 2021)
